Experimental data reported in the supplement of paper PMC10307832.

Assays:
Assay in all cases: relative viability (nuclei count vs DMSO), 5 days (fraction); higher = more cells survive
AZ23 = compound: CC(C)Oc1cc(Nc2nc(N[C@@H](C)c3ccc(F)cn3)ncc2Cl)n[nH]1 [AZ23]
In short: (§1)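 MetaXpress counted nuclei in 4× images of lung cancer cell lines that had been fixed, permeabilised and Hoechst-stained in one step. Before that, cells in 1536-well plates were kept overnight at 37 °C, pinned with five √10-spaced library-drug doses on vehicle-anchored plates, and cultured 5 days without medium change. Viability takes treated-well nuclei over vehicle-well nuclei and uses the median across plates. Plates were accepted only at control CV below 25% and at least one doubling.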

HG-5-88-01 = compound: CC(C)S(=O)(=O)C1=CC=CC=C1NC2=NC(=NC(=C2Cl)N)NC3=C(C=C(C=C3)N4CCC(CC4)C(=O)N)OC [HG-5-88-01]
In short: as §1

Vatalanib = compound: Clc1ccc(Nc2nnc(Cc3ccncc3)c3ccccc23)cc1 [Vatalanib]
In short: as §1

[1] = compound: C[C@@H]1CN(CC(=O)Nc2ccc3c(c2)Cc2cccc(-c4cc(=O)cc(N5CCOCC5)o4)c2S3)C[C@H](C)O1
In short: as §1

Embelin = compound: CCCCCCCCCCCC1=C(O)C(=O)C=C(O)C1=O [Embelin]
In short: as §1

Cell Line | relative viability (AZ23; 0.01 µM) | relative viability (AZ23; 0.03162 µM) | relative viability (AZ23; 0.3162 µM) | relative viability (HG-5-88-01; 0.04 µM) | relative viability (HG-5-88-01; 0.1265 µM) | relative viability (HG-5-88-01; 0.4 µM) | relative viability (HG-5-88-01; 1.265 µM) | relative viability (HG-5-88-01; 4 µM) | relative viability (Vatalanib; 0.04 µM) | relative viability (Vatalanib; 0.1265 µM) | relative viability (Vatalanib; 0.4 µM) | relative viability (Vatalanib; 1.265 µM) | relative viability (Vatalanib; 4 µM) | relative viability ([1]; 0.04 µM) | relative viability ([1]; 0.1265 µM) | relative viability ([1]; 0.4 µM) | relative viability ([1]; 4 µM) | relative viability (Embelin; 0.08 µM) | relative viability (Embelin; 0.8 µM) | relative viability (Embelin; 2.53 µM) | relative viability (Embelin; 8 µM)
NCI-H441 | 1.43 | 1.01 | 1.06 | 1.09 | 1.33 | 1.24 | 0.925 | 0.819 | 1.16 | 0.922 | 1.08 | 1.08 | 0.933 | 1.2 | 0.787 | 1.04 | 0.948 | 1.05 | 1.19 | 1.45 | 1.02
201T | 1.05 | 1.06 | 1.07 | 1.01 | 0.941 | 0.951 | 1.03 | 1.03 | 0.975 | 0.975 | 1.05 | 0.929 | 0.953 | 0.996 | 0.944 | 0.992 | 0.961 | 0.985 | 1.02 | 1.11 | 0.966
H3255 | 0.858 | 1.21 | 0.999 | 1.04 | 1.05 | 0.838 |  | 0.871 | 0.921 | 0.926 | 0.841 | 0.781 | 0.978 | 0.917 | 0.947 | 0.905 | 0.878 | 0.963 | 1.05 | 0.875 | 1.07
NCI-H1355 | 1.14 | 1.03 | 1.03 | 1.01 | 1.06 | 0.932 | 0.943 | 0.698 | 1.03 | 0.99 | 1.07 | 0.938 | 0.969 | 0.984 | 0.964 | 0.959 | 0.852 | 0.996 | 1.16 | 1.03 | 0.775
LU99A | 1.04 | 0.998 | 0.941 | 0.963 | 0.958 | 0.873 | 1.02 | 0.907 | 1.03 | 1.02 | 1.06 | 0.951 | 0.923 | 0.86 | 1.05 | 1.15 | 0.975 | 1.08 | 1.07 | 1.08 | 0.948
IA-LM | 0.91 | 1.12 | 1.07 | 0.959 | 0.984 | 0.85 | 0.715 | 0.704 | 0.977 | 0.898 | 0.955 | 0.909 | 0.898 | 0.911 | 0.938 | 0.946 | 0.574 | 0.932 | 0.981 | 1 | 0.689
EBC-1 | 1.04 | 1.12 | 0.931 | 1.02 | 0.851 | 0.98 | 0.933 | 0.901 | 1.06 | 0.895 | 1.06 | 0.955 | 0.896 | 1.02 | 0.952 | 0.712 | 0.535 | 1 | 1.11 | 1.02 | 0.979
HCC-44 | 0.999 | 1.06 | 1.01 | 1.04 | 0.972 | 0.914 | 0.927 | 0.567 | 0.951 | 0.905 | 0.943 | 0.963 | 0.97 | 0.934 | 0.976 | 0.919 | 0.923 | 0.886 | 1.01 | 1.01 | 0.869
NCI-H460 | 1.03 | 1.08 | 1.07 | 1 | 0.953 | 0.954 | 0.99 | 1.03 | 1.03 | 0.924 | 1.01 | 0.947 | 0.984 | 0.934 | 0.963 | 1.06 | 0.938 | 1.01 | 1.03 | 1.04 | 0.997
ABC-1 | 0.82 | 1.18 | 1.02 | 0.825 | 1 | 0.732 | 0.75 | 0.778 | 0.977 | 0.647 | 0.803 | 0.89 | 0.851 |  | 1.11 | 0.983 | 1.12 | 0.866 | 1.11 | 0.893 | 1.03
CAL-12T | 0.692 | 1.09 | 0.932 | 0.959 | 1.09 | 0.952 | 0.746 | 0.459 | 0.978 | 0.946 | 0.988 | 0.867 | 0.885 | 1.04 | 1.01 | 1.06 | 0.549 | 1.01 | 1.18 | 0.855 | 0.986
NCI-H1666 | 0.988 | 1.03 | 0.976 | 1.03 | 1.03 | 0.847 | 0.869 | 0.864 | 0.958 | 1.03 | 1.04 | 1 | 0.981 | 0.983 | 1.05 | 1.03 | 0.903 | 0.939 | 1.06 | 0.976 | 1.01
NCI-H1915 | 1.1 | 1.06 | 1.01 | 1.03 | 1.06 | 1.01 | 1.13 | 0.745 | 1.05 | 0.943 | 1.01 | 0.981 | 0.992 | 0.966 | 0.985 | 1.01 | 0.748 | 1.08 | 1.07 | 1.04 | 0.983
NCI-H838 | 0.987 | 0.993 | 1 | 0.978 | 1.03 | 0.79 | 0.676 | 0.655 | 1.02 | 0.928 | 1.09 | 0.945 | 0.942 | 0.887 | 0.93 | 0.883 | 0.813 | 0.982 | 1.05 | 1.06 | 0.896
NCI-H1623 | 0.984 | 0.964 | 0.955 | 1.09 | 0.979 | 0.983 |  | 0.856 | 0.963 | 1.14 | 1.04 | 0.879 | 0.933 | 0.942 | 0.973 | 1.02 | 0.957 | 0.926 | 0.988 | 1.06 | 0.972
NCI-H1648 | 0.794 | 1.05 | 0.788 | 0.809 | 0.728 | 0.878 | 0.368 | 0.451 | 0.958 | 0.938 | 0.893 | 0.889 | 0.939 | 0.871 | 0.796 | 1.06 | 0.757 | 0.963 | 1.21 | 0.92 | 0.954
